Key:
[1] = target: T1, Metabotropic glutamate receptor 5 (Rattus norvegicus, UniProt P31424); assay: Activity at rat mGlu5 receptor expressed in CHO cells assessed as inhibition of quisqualate-stimulated calcium mobilization by FLIPR assay; assay type: functional, cell-based
Rattus norvegicus = assay: Anxiolytic activity in thirsty naive rat assessed as shock episodes at 10 mg/kg, po by Vogel assay relative to control; assay type: functional
[2] = target: T1, Metabotropic glutamate receptor 5; assay: Displacement of [3H]MPEP from mGlu5 receptor in rat brain; assay type: tissue-based

T1 sequence (P31424 whole entry): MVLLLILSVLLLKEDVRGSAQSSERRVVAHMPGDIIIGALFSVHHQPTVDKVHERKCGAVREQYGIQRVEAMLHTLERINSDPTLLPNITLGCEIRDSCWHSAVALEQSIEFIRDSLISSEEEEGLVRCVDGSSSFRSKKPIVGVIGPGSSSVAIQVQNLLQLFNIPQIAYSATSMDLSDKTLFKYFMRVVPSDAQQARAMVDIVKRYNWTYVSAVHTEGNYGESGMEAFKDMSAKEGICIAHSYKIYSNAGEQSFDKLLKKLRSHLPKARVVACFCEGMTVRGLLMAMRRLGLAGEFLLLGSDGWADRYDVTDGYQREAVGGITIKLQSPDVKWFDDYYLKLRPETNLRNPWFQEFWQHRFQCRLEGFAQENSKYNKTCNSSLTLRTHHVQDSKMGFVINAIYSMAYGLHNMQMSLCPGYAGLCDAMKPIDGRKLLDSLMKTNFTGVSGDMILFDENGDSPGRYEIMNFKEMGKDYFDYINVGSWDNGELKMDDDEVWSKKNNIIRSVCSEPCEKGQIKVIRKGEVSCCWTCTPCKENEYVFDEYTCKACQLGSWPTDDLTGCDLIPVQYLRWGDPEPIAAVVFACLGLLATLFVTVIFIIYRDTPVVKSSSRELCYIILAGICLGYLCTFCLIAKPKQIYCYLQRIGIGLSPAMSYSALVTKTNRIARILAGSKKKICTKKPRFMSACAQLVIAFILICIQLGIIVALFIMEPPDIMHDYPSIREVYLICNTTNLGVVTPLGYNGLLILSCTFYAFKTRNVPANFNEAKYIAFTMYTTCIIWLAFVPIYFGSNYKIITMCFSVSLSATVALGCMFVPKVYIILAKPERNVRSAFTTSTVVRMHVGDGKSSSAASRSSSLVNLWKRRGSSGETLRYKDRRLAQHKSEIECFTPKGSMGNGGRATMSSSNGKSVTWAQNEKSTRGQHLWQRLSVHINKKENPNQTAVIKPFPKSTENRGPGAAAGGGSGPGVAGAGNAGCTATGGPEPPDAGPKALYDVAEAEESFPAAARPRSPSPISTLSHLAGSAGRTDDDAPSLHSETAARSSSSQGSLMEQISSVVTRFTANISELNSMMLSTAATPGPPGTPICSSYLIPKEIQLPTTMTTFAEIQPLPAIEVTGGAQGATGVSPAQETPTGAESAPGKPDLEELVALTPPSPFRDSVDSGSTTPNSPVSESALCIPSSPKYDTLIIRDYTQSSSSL

Cc1ccc2ccc(-c3cccnc3)cc2n1
IC50 [1]: 510 nM

Cc1ccc2ccc(-c3cccc(F)c3)cc2n1
IC50 [1]: 1800 nM

Cc1cccc(-c2ccc3ccc(C)nc3c2)c1
IC50 [1]: 3400 nM

Cc1ccc2ccc(-c3cc(C#N)cc(C#N)c3)cc2n1
IC50 [1]: 2 nM

COCc1cc(C#N)cc(-c2ccc3ccc(C)nc3c2)c1
IC50 [1]: 2 nM

COCc1cccc(-c2ccc3ccc(C)nc3c2)c1
IC50 [1]: 5800 nM

Cc1ccc2ccc(-c3cccc(CO)c3)cc2n1
IC50 [1]: 8700 nM

Cc1ccc2ccc(-c3cccc(Cl)c3)cc2n1
IC50 [1]: 14000 nM

Cc1ccc2ccc(-c3cccc(O)c3)cc2n1
IC50 [1]: 19000 nM

Cc1ccc2ccc(-c3cccc(C(N)=O)c3)cc2n1
IC50 [1]: > 10000 nM

COc1ccccc1-c1ccc2ccc(C)nc2c1
IC50 [1]: 4200 nM

Cc1ccc2ccc(-c3cccc(C(F)(F)F)c3)cc2n1
IC50 [1]: > 10000 nM

Cc1ccc2ccc(-c3ccc(C#N)cc3)cc2n1
IC50 [1]: > 10000 nM

Cc1ccc2ccc(-c3cc(F)cc(C#N)c3)cc2n1
IC50 [1]: 0.8 nM
Activity (Rattus norvegicus): 100%
Ki [2]: 22 nM

Cc1cc(C#N)cc(-c2ccc3ccc(C)nc3c2)c1
IC50 [1]: 1.6 nM

CCOc1cc(C#N)cc(-c2ccc3ccc(C)nc3c2)c1
IC50 [1]: 17 nM

CC(=O)c1cccc(-c2ccc3ccc(C)nc3c2)c1
IC50 [1]: 4760 nM

COc1cc(C#N)cc(-c2ccc3ccc(C)nc3c2)c1
IC50 [1]: 2.4 nM

Cc1ccc2ccc(-c3cncc(C#N)c3)cc2n1
IC50 [1]: 23 nM

CCSc1cc(C#N)cc(-c2ccc3ccc(C)nc3c2)c1
IC50 [1]: 72 nM

COCCOc1cc(C#N)cc(-c2ccc3ccc(C)nc3c2)c1
IC50 [1]: 82 nM

Cc1ccc2ccc(-c3cc(C#N)cc(OC(C)C)c3)cc2n1
IC50 [1]: 310 nM

Cc1ccc2ccc(-c3cc(O)cc(C#N)c3)cc2n1
IC50 [1]: 360 nM

CCS(=O)(=O)c1cc(C#N)cc(-c2ccc3ccc(C)nc3c2)c1
IC50 [1]: 1090 nM

Cc1ccc2ccc(-c3ccccc3)cc2n1
IC50 [1]: 9000 nM

Cc1ccc2ccc(-c3cccc(C#N)c3)cc2n1
IC50 [1]: 7.7 nM
Ki [2]: 72 nM

Cc1ccc2ccc(-c3cccc(CC#N)c3)cc2n1
IC50 [1]: 430 nM

COc1cccc(-c2ccc3ccc(C)nc3c2)c1
IC50 [1]: 860 nM

Cc1ccc2ccc(-c3cccc(OC(F)(F)F)c3)cc2n1
IC50 [1]: > 10000 nM

COc1ccc(-c2ccc3ccc(C)nc3c2)cc1
IC50 [1]: 16000 nM

Cc1ccc2ccc(-c3cc(Cl)cc(C#N)c3)cc2n1
IC50 [1]: 1.4 nM

Cc1ccc2ccc(-c3cc(Br)cc(C#N)c3)cc2n1
IC50 [1]: 13 nM

Cc1ccc2ccc(-c3cc(C#N)cc(OC(F)(F)F)c3)cc2n1
IC50 [1]: 75 nM

Cc1ccc2ccc(-c3cc(C#N)cc(OCC(C)C)c3)cc2n1
IC50 [1]: 12000 nM

Cc1ccc2ccc(-c3ccccc3C#N)cc2n1
IC50 [1]: 9800 nM

Cc1cccc(C#Cc2ccccc2)n1
Activity (Rattus norvegicus): 80%
